These results are taken from patent US4789587A, “(1,3-dioxolan-2-yl-methyl)-1H-imidazoles as bactericidal and/or fungicidal agents” (IRE-Celltarg, S.A., priority 1986, dated 1988).

Series [1] has as its system Leydig tumor cells from mice (I-10, ATCC No. CCL83). Briefly: in vitro synthesis of steroids: progesterone secretion by Leydig tumor cells induced by cAMP. In kind it is cell-based. The following applies: 9.4×10^-7 M. An excerpt:
(§1) Ketoconazole and its derivatives reduce the plasma levels of testosterone by inhibiting certain enzymes involved in its biogenesis. Progesterone is a key intermediate in the biogenesis of steroid hormones as it leads especially to estradiol in the ovary and to testosterone in the testicles. The inhibiting power of ketoconazole and its derivatives on the enzyme chain for the biogenesis of steroid hormones may be assessed by measuring the conversion of cholesterol into progesterone. A method of determination which enables this property to be quantified is described below.
(§2) Leydig tumor cells from mice (I-10, ATCC No. CCL83) were grown in a HAM's F10 medium to which 15% of horse serum and 2.5% of foetal calf serum were added. These cells have the property of secreting progesterone and a product of reduction of the latter which is no longer metabolized, 20α-hydroxy-4-pregnen-3-one. This secretion of steroids is induced by the addition of cAMP in the form of its dibutyryl ester (N^6, O^2' -dibutyryladenosine 3', 5'-cyclic monophosphate sodium salt monohydrate (Sigma)). The cells are subcultured in 25 cm^2 falcon dishes and maintained under CO2 (10%). When these become confluent (±1 mg/ml proteins) the medium is replaced with fresh medium containing dibutyryl-cAMP (1×10^-4 M). After incubating for 1 hour with the cAMP, the ketoconazole or its derivatives are added (9.4×10^-7 M) to the culture medium. After incubating for a further period of 3 hours, the supernatants are collected and will be used for the analysis of steroids by HPLC. The cells are rinsed with PBS (phosphate buffered saline: NaCl 0.15M, KCl 2.7 mM, Na2 HPO4 -KH2 PO4 3 mM pH 7.4) and after treating with DOC (deoxycholic acid), the determination of proteins is carried out by the Lowry method.
(§3) For the determination of steroids, 2 ml of the culture medium are brought into contact with 5 ml of ether. The tubes are vortexed for 2 minutes. After freezing the aqueous phases in an isopropanol/solid carbon dioxide bath, the ether phase is collected and the ether is evaporated off under a stream of nitrogen at 30° C. The dry extract is then diluted in 150 μl of water and 150 μl of acetonitrile and centrifuged at 13,000 rpm for 10 minutes. 30 μl of the supernatant are injected into HPLC on a 4 mm diameter, 30 cm long μBondapack C18 column (WATERS). The mobile phase consists of 38% of water, 31% acetonitrile and 31% methanol. The flowrate is 2 ml/min and readings are taken at 245 nm.

For series [2], the system named is Candida albicans ATCCe 10231. Briefly: minimum inhibiting concentration, microtitration in liquid medium, C. albicans. In kind it is cell-based. Conditions: ATCCE10231, RPMI + 20% foetal calf serum, overnight, inoculum 10^5 to 10^6 organisms/ml. On the procedure: (§4) The activity of the new derivatives according to the invention was tested in vitro by determining the minimum inhibiting concentration (MIC) of the molecules and their fungicidal (minimum fungicidal concentration MFC) or bactericidal (minimum bactericidal concentration MBC) activity. MFC and MBC are defined as the minimum dose which kills 99.9% of the organisms contained in the inoculum. Two species of yeasts pathogenic to man were used: Candida albicans ATCCe 10231 and Candida tropicalis ATCC 13803. Two species of bacteria were included in the screening: Staphylococcus aureus ATCC 25923 and Salmonella typhimurium LT2, strain Demerec. The MIC is determined after culturing overnight in a liquid medium, by the microtitration method in dishes containing 96 wells over a concentration range of 100 μM to 0.0008 μM. The inoculum contains 10^5 to 10^6 organisms/ml. The culture media consist on the one hand of RPMI to which 20% of foetal calf serum (inactivated for one hour at 56°) has been added in order to determine the fungistatic activity and Mueller-Hinton agar in order to determine the bacteriostatic power of the newly synthesized molecules on the other. The MFC and MBC for each of these molecules are obtained by subculturing a sample containing 10^3 organisms from each well giving negative results for the growth of the organisms, in a solid medium consisting of YM agar (yeasts) or Mueller-Hinton agar (bacteria) overnight at 37°.

Series [3] relates to Staphylococcus aureus ATCC 25923. Nature of the series: minimum inhibiting concentration, microtitration in liquid medium, S. aureus. It is filed as cell-based. The following applies: ATCC25923, Mueller-Hinton, overnight, inoculum 10^5 to 10^6 organisms/ml, read-out: MIC S. aureus. As for the experimental part:
as §4

The subject of series [4] is Candida tropicalis ATCC 13803. Nature of the series: minimum fungicidal concentration, subculture on YM agar, C. tropicalis. It is filed as cell-based. Conditions: ATCC13803, minimum dose which kills 99.9% of the organisms, YM agar, overnight at 37°, read-out: MFC C. tropicalis. As for the experimental part: as §4
Series [5] deals with Candida albicans ATCCe 10231. Nature of the series: minimum fungicidal concentration, subculture on YM agar, C. albicans. In kind it is cell-based. Conditions: ATCCE10231, minimum dose which kills 99.9% of the organisms, YM agar, overnight at 37°, read-out: MFC C. albicans. On the procedure:
as §4

The subject of series [6] is Salmonella typhimurium LT2, strain Demerec. Briefly: minimum inhibiting concentration, microtitration in liquid medium, S. typhimurium. In kind it is cell-based. The following applies: Salmonella enterica, Mueller-Hinton, overnight, inoculum 10^5 to 10^6 organisms/ml, read-out: MIC S. typhimurium. As for the experimental part: as §4
Series [7] has as its system Leydig tumor cells from mice (I-10, ATCC No. CCL83). Briefly: in vitro synthesis of steroids: 20α-hydroxy-4-pregnen-3-one secretion by Leydig tumor cells induced by cAMP. Conditions: 9.4×10^-7 M. It is filed as cell-based.
Source text: as §1, §2, §3

The subject of series [8] is Staphylococcus aureus ATCC 25923. Briefly: minimum bactericidal concentration, subculture on Mueller-Hinton agar, S. aureus. It is filed as cell-based. The following applies: ATCC25923, minimum dose which kills 99.9% of the organisms (MBC), overnight at 37°, read-out: MFC S. aureus. On the procedure: as §4
The nature of series [9]: resorption: plasma concentration in rats after gastric administration. The following applies: rat, po, 1000 umol/kg, 100 μmols/0.5 ml of DMSO per 100 g of body weight, Candida tropicalis inhibition zones vs ketoconazole standard curve, read-out: plasma concentration of the antifungal product. It is filed as in vivo. As for the experimental part: 100 μmols/0.5 ml of DMSO per 100 g of body weight of either ketoconazole (reference product) or oleylketoconazole (compound No. 7) are administered to rats by the gastric route. The animals are sacrificed with CO2, 1 h after the administration. Blood is sampled by cardiac puncture and centrifuged for 15 minutes at 2000 rpm to obtain the plasma.
A series of dilutions of the plasma samples are prepared in a 0.9% NaCl solution, diluting twice each time. 10 μl are sampled from each dilution and deposited on Whatman paper discs. The discs are placed in Petri dishes containing 15 ml of casitone agar covered with a layer containing 3 ml of a less dense agar mixed with 0.1 ml of an overnight culture of Candida tropicalis. After incubating overnight the growth inhibition zones around the disks are measured and compared with a standard curve prepared with ketoconazole under the same conditions.

Series [10] relates to Candida tropicalis ATCC 13803. Briefly: minimum inhibiting concentration, microtitration in liquid medium, C. tropicalis. It is filed as cell-based. Conditions: ATCC13803, RPMI + 20% foetal calf serum, overnight, inoculum 10^5 to 10^6 organisms/ml. As for the experimental part: as §4

Converted amounts (≈) assume the structure as drawn. Bounds are passed on as bounds.

One may read the MIC as the smallest concentration in the dilution series that meets the test's criterion for growth inhibition. Broadly, the MFC is the lowest tested concentration that kills the fungus rather than only halting it. `CCCCCCCCC=CCCCCCCCC(=O)N1CCN(c2ccc(OCC3COC(Cn4ccnc4)(c4ccc(Cl)cc4Cl)O3)cc2)CC1` (stereo not drawn) [No. 7]: the “Progesterone (1)” value in series [1] (dibutyryl-cAMP 1×10^-4 M, 3 hours incubation with compound, control 3546, basal 554) was 2754 ng of steroids/mg of cell prot. For the same compound, the progesterone secretion, % of cAMP-induced control at 0.94 µM in [1] (Mus musculus, Leydig, relative to cells induced by cAMP in the absence of inhibitor, read-out: Progesterone (2) % enzyme activity relative to control) came out at 78%. Also, the MIC was 10.2 µM in series [2], above 100 µM in series [3], above 100 µM in series [6] and 8.78 µM in series [10]. Moreover, the results for the minimum fungicidal concentration (MFC) in [4] and in series [5] were 250 µM (≈ 188 µg/mL) and 125 µM (≈ 94.2 µg/mL), respectively. Also, the “20α-OH-4-pregnen-3-one (1)” value in series [7] (dibutyryl-cAMP 1×10^-4 M, 3 hours incubation with compound, control 1744, basal 785) is 1497 ng of steroids/mg of cell prot. Also, in series [7] (Mus musculus, Leydig, relative to cells induced by cAMP in the absence of inhibitor, read-out: 20α-OH-4-pregnen-3-one (2) % enzyme activity relative to control), the activity at 0.94 µM stood at 86%. Also, in [8], the MBC was above 100 µM. In addition, the concentration at 1 h in series [9] came out at 57.3 µM.
